Molecules are shown by their SMILES.

Data on ten molecules can be found in US10173991B2, “Sulfone amide linked benzothiazole inhibitors of endothelial lipase” (BRISTOL-MYERS SQUIBB COMPANY, priority 2014, dated 2019).

Endothelial lipase (EL), sequence (Q9Y5X9 21-500): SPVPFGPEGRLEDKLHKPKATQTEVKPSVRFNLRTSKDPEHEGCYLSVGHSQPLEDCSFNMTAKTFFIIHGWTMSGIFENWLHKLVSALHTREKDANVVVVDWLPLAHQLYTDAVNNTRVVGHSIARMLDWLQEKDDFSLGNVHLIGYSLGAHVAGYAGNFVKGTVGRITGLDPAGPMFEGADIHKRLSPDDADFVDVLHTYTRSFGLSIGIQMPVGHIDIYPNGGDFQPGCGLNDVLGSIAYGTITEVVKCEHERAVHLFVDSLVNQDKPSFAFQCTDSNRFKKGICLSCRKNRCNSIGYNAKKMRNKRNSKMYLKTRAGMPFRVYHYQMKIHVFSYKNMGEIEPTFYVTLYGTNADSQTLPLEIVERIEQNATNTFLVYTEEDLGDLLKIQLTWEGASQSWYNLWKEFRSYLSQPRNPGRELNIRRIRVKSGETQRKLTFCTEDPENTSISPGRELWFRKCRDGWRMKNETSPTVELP

The first assay addresses Endothelial lipase (EL) (Homo sapiens (Human), UniProt Q9Y5X9). Briefly: Endothelial lipase (EL) enzymatic assay with fluorescent substrate A10070 in DMPG vesicles. Format: biochemical.
Conditions: not given
A digest of the protocol: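 Vesicles prepared: A10070 dried with DMPG, resuspended in HEPES pH 8.0/NaCl/EDTA, sonicated on ice. Enzyme incubated with compound 30 min at 37° C. Reaction started with 1:10 diluted vesicles. Fluorescence (490/530 nm) followed 60 min; slope from 300–900 secs gives rate.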
In turn, `CC(C)S(=O)(=O)C(C(=O)NCC(=O)NC1CC1)c1nc2cc(F)c(-c3cccc(NC(=O)OCc4ccccc4)c3)cc2s1` (stereo not shown) [Example 557, benzyl N-{3-[2-({[(cyclopropyl-carbamoyl)methyl]carbamoyl} (propane-2-sulfonyl)methyl)-5-fluoro-1,3-benzothiazol-6-yl]phenyl}carbamate] showed an IC50 of 7 nM. In other words, the single-digit nanomolar range.
Turning to `COCC(C)(C)NC(=O)c1ccc(-c2ccc3nc(C(C(=O)NCC(=O)NC4CC4)S(C)(=O)=O)sc3c2)cc1` (stereo not shown) [Example 560, 4-[2-({[(cyclopropyl-carbamoyl)methyl]carbamoyl} (methanesulfonyl)methyl)-1,3-benzothiazol-6-yl]-N-(1-methoxy-2-methylpropan-2-yl)benzamide], inhibition was half-maximal at 2 nM (IC50).
The molecule `COCCS(=O)(=O)C(C(=O)NCC(=O)NC1CC1)c1nc2ccc(-c3ccc(C(=O)NC(C)(C)COC)cc3)cc2s1` (stereo not shown) [Example 561, 4-[2-({[(cyclopropyl-carbamoyl)methyl]carbamoyl}(2-methoxyethane-sulfonyl)methyl)-1,3-benzothiazol-6-yl]-N-(1-methoxy-2-methylpropan-2-yl)benzamide] returned an IC50 of 3 nM.
The same measure, in the same setting: the value for `COCCS(=O)(=O)C(C(=O)NCC(=O)NC1CC1)c1nc2ccc(-c3ccc(C(=O)N4CCO[C@@H](C)C4)cc3)cc2s1` (stereo partly drawn) [Example 562, N-[(cyclopropyl-carbamoyl)methyl]-2-(2-methoxyethane-sulfonyl)-2-(6-{4-[(2S)-2-methyl-morpholine-4-carbonyl]phenyl}-1,3-benzothiazol-2-yl)acetamide] was 11 nM.
The same measure, in the same setting: to `CC1(O)CN(C(=O)c2ccc(-c3cc4sc(C(C(=O)NCC(=O)NC5CC5)S(=O)(=O)CCC(F)(F)F)nc4cc3F)cc2)C1` (stereo not shown) [Example 564, N-[(cyclopropyl-carbamoyl)methyl]-2-{5-fluoro-6-[4-(3-hydroxy-3-methylazetidine-1-carbonyl)phenyl]-1,3-benzothiazol-2-yl}-2-[3,3,3-trifluoropropane-sulfonyl)acetamide] belongs 5 nM.
`COCCS(=O)(=O)C(C(=O)NCC(=O)NC1CC1)c1nc2cc(F)c(-c3ccc(C(=O)N4CC(C)(O)C4)cc3)cc2s1` (stereo not shown) [Example 565, N-[(cyclopropyl-carbamoyl)methyl]-2-{5-fluoro-6-[4-(3-hydroxy-3-methylazetidine-1-carbonyl)phenyl]-1,3-benzothiazol-2-yl}-2-(2-methoxyethane-sulfonyl)acetamide] yielded an IC50 of 3 nM. Compared with the last molecule, the IC50 is about 1.7-fold lower.
The molecule `COCCS(=O)(=O)C(C(=O)NCC(=O)NC1CC1)c1nc2ccc(-c3ccc(C(=O)NCC(C)(C)OC)cc3)cc2s1` (stereo not shown) [Example 566, 4-[2-({[(cyclopropyl-carbamoyl)methyl]carbamoyl}(2-methoxyethane-sulfonyl)methyl)-1,3-benzothiazol-6-yl]-N-(2-methoxy-2-methylpropyl) benzamide] displayed an IC50 of 4 nM.
Consider `CC(C)(O)CNC(=O)c1ccc(-c2ccc3nc(C(C(=O)NCC(=O)NC4CC4)S(C)(=O)=O)sc3c2)cc1` (stereo not shown) [Example 567, 4-[2-({[(cyclopropyl-carbamoyl)methyl]carbamoyl} (methanesulfonyl)methyl)-1,3-benzothiazol-6-yl]-N-(2-hydroxy-2-methylpropyl) benzamide], for which the IC50 was determined as 4 nM. That is a single-digit nanomolar value.
On the same count and under the same terms, to `COCCN(C)C(=O)c1ccc(-c2ccc3nc(C(C(=O)NCC(=O)NC4CC4)S(=O)(=O)CCOC)sc3c2)cc1F` (stereo not shown) [Example 568, 4-[2-({[(cyclopropyl-carbamoyl)methyl]carbamoyl}(2-methoxyethane-sulfonyl)methyl)-1,3-benzothiazol-6-yl]-2-fluoro-N-(2-methoxyethyl)-N-methylbenzamide] belongs 9 nM.

The assay is the same for the next values; noted with them: EL from conditioned media of HT-1080 cells; 30 min preincubation at 37° C.
The molecule `COCCS(=O)(=O)C(C(=O)NCC(=O)NC1CC1)c1nc2ccc(-c3ccc(C(=O)NCC(C)(C)COC)cc3)cc2s1` (stereo not shown) [Example 559, 4-(2-(2-((2-(Cyclopropylamino)-2-oxoethyl)amino)-1-((2-methoxyethyl)sulfonyl)-2-oxoethyl)benzo[d]thiazol-6-yl)-N-(3-methoxy-2,2-dimethylpropyl)benzamide] showed an IC50 of 5.5 nM.

A word on the IC50: it is the concentration at which inhibition is half-maximal.
